Measured values reported in US20220226484A1, “THERAPEUTIC PEPTIDES” (COHBAR, INC., priority 2019, published 2022).
Positions of bridges follow the written chain, without caps; N, C: chain ends. Non-standard residues stand in square brackets, D forms with d. Primed or numbered codes have the meaning given here. Chains are numbered I, II in the order given. No end group written: not given here. PEG12′ = not defined here

B1: BDNF: positive control, BDNF (50 ng/ml) (protein, UniProt P23560 19-247, looked up)
Neurotrophic factor BDNF …: APMKEANIRGQGGLAYPGVRTHGTLESVNGPKAGSRGLTSLADTFEHVIEELLDEDQKVRPNEENNKDADLYTSRVMLSSQVPLEPPLLFLLEEYKNYLDAANMSMRVRRHSDPARRGELSVCDSISEWVTAADKKTAVDMSGGTVTVLEKVPVSKGQLKQYFYETKCNPMGYTKEGCRGIDKRHWNSQCRTTQSYVRALTMDSKKRIGWRFIRIDTSCVCTLTIKRGR

Assays:
Format in all cases: cell-based
[1] = tested on: C2C12 Mouse Myoblasts; assay: Glucose utilization; conditions: metformin 1 mM
Description: The effect of the peptides on glucose metabolism can be assessed using an assay of glucose utilization in cultured cultured cells such as mouse myoblasts. Peptides were initially prepared as 10 mM stock in DMSO and used at a final concentration of 10 μM (0.1% DMSO). C2C12 mouse myoblast cell line was purchased from American Type Culture Collection (Manassas, Va.). C2C12 cultures were maintained at 37° C. in a humidified atmosphere of 5% CO2/95% air with medium changes every second day. C2C12 cells were grown in DMEM (1 g/L glucose) supplemented with 10% FBS with 100 IU/ml penicillin and 100 μg/ml streptomycin. C2C12 cells were seeded at 7,000 cells per well on 96-well plates and cultured to confluence. Once the cell reached confluence the media was changed to DMEM (1 g/L glucose) supplemented with 2% HS with 100 IU/ml penicillin and 100 μg/ml streptomycin and maintained at 37° C. in a humidified atmosphere of 5% CO2/95% air. 5 days post-induction of differentiation fresh DMEM (1 g/L glucose) supplemented with 2% HS with 100 IU/ml penicillin and 100 μg/ml streptomycin was added to cultures. Cells were maintained at 37° C. in a humidified atmosphere of 5% CO2 and 95% air for 5 hours. After 5 hours test peptides at 10 μM or controls (0.5 mM or 1 mM metformin in 1% DMSO) prepared in fresh differentiation medium were added to cells and the cultures were maintained at 37° C. in a humidified atmosphere of 5% CO2/95% air for 18-22 hours. At the end of the incubation culture media was removed from the cells and the remaining glucose concentration was measured using a Glucose Assay kit (Abcam) according to the manufacturer's instructions, using a Cytation 3 plate reader at 570 nm (BioTek, Winooski, Vt.). Glucose concentrations in the medium were calculated relative to 0.1% DMSO treated control cells. The relative standard deviation of the result for the 0.1% DMSO treated control was <20%. Metformin was used as a positive control for reduction of glucose levels (increased glucose utilization glucose levels for treatment with metformin (1 mM) treatment were <20% of the 0.1% DMSO treated control value. The results are reported in Table 7.

[2] = tested on: WI-38 cells (human fetal lung fibroblast cells); assay: Fibroblast-to-myofibroblast transition assay, pro-collagen I alpha 1 expression; conditions: 10 μM peptide and 5 ng/ml TGF-β, 48 h, cell lysates
Description: The effect of the peptides on fibrosis can be assessed in vitro using a fibroblast-to-myofibroblast transition (FMT) assay and monitoring pro-collagen I alpha 1 expression produced by cultured cells such as human fetal lung fibroblast cells. Peptides were initially prepared as 10 mM stock solutions in DMSO or 1 mM stock in H2O and were used at a final concentration of 10 μM (0-0.1% DMSO). Transforming Growth Factor beta (TGF-β) was used as a potent inducer of FMT as measured by increased pro-collagen I alpha 1 expression. Human WI-38 cell line was purchased from American Type Culture Collection (Manassas, Va.). WI-38 cells were seeded in complete medium (DMEM/high glucose (4 g/L)+10% Fetal Bovine Serum+1% penicillin/streptomycin) at 40,000 cells/well on 48-well plates and placed at 37° C. in a humidified atmosphere of 5% CO2/95% air. The next day, the medium was removed, cells were rinsed twice with HBSS, and the medium replaced with Serum Restricted Medium (DMEM/high glucose (4 g/L)+0.2% Fetal Bovine Serum+1% penicillin/streptomycin). The cultures were placed at 37° C. in a humidified atmosphere of 5% CO2/95% air overnight. Following 24 h in Serum Restricted Medium, the medium was removed, and the following was added: fresh Serum Restricted Medium alone (no TGF-β control); fresh Serum Restricted Medium containing 5 ng/ml TGF-β (TGF-β control); or fresh Serum Restricted Medium containing 10 μM peptide and 5 ng/ml TGF-β. Cells were incubated for 48 h at 37° C. in a humidified atmosphere of 5% CO2/95% air, washed twice with cold HBSS and immediately lysed. Lysis and determination of pro-collagen I alpha 1 concentrations in the cell lysates were performed using a Pro-Collagen I Alpha 1 ELISA kit (Abcam; Cambridge, Mass.) according to the manufacturer's instructions; absorbance was measured using a Cytation 3 plate reader at 450 nm (BioTek, Winooski, Vt.).

[3] = tested on: H4IIE Rat Hepatoma Cells; assay: Insulin-dependent effect on glucose production by cultured rat liver cells; conditions: 24 hour; for Glucose Levels, MEAN % Control, +Insulin: peptide 10 μM + insulin 800 pM, percent of insulin (800 pM); for Glucose Levels, MEAN % Control, −Insulin: peptide 10 μM alone, percent of untreated control cells
Description: The effect of the peptides on glucose production was assessed in the absence and presence of insulin using an assay of glucose levels in cultured cells such as rat hepatocytes. Peptides were initially prepared as 10 mM stock in DMSO and used at a final concentration of 10 μM (0.1% DMSO). Insulin (800 pM) was used as a partial inhibitor of glucose production. H4-IIE cells purchased from ATCC (Manassas, Va.) were seeded at 100,000 cells/well in standard medium (DMEM/high glucose+10% FBS+1× Glutamax+antibiotics) on 96-well plates and allowed to adhere overnight at 37° C. in a humidified atmosphere of 5% CO2/95% air. Approximately 24 h after seeding, the medium was removed, cells rinsed with glucose free DMEM, and Glucose Production Medium (glucose free DMEM+2 mM sodium pyruvate+10 mM sodium lactate) was added. The cultures were placed at 37° C. in a humidified atmosphere of 5% CO2/95% air overnight. The next morning, the medium was removed and fresh Glucose Production Medium containing compounds was added. Insulin at 800 pM was added to control wells. Peptides (10 μM) in the absence or presence of insulin (800 pM) were added to test wells. Cells in the presence of compounds were placed at 37° C. in a humidified atmosphere of 5% CO2/95% air overnight. After 24 hour incubation, conditioned medium from each well was transferred to a fresh 96-well plate for quantitation of glucose content. Quantitation of glucose levels was determined using an Amplex Red Glucose Assay kit (Abacm; Cambridge, Mass.) according to the manufacturer's instructions using a Cytation 3 plate reader at 570 nm (BioTek, Winooski, Vt.). Absorbance values were expressed as a percent of untreated control cells (maximum glucose production) for peptide alone samples or insulin (800 pM) for peptides in the presence of insulin (800 pM. Glucose levels for insulin (800 pM) treatment were ˜80-90% of the untreated control values. The results are reported in Table 15.

[4] = tested on: 3T3-L1 Mouse Adipocytes; assay: Insulin-dependent effect on free fatty acid levels in cultured mouse adipocytes; conditions: 3 hours; for Free Fatty Acid Levels, MEAN % ISO, +Insulin: peptide 10 μM + insulin 0.25 nM, percent of isoproterenol (0.1 nM)+insulin (0.25 nM); for Free Fatty Acid Levels, MEAN % ISO, −Insulin: peptide 10 μM alone, percent of isoproterenol (0.1 nM) treated control cells
Description: The effect of the peptides on fatty acid metabolism was assessed in the absence and presence of insulin using an assay of free fatty acid levels in cultured cells such as mouse adipocytes. Peptides were initially prepared as 10 mM stock in DMSO and used at a final concentration of 10 μM (0.1% DMSO). […] Insulin (0.25 nM) was used as a partial inhibitor and insulin (10 nM) was used as a potent inhibitor of isoproterenol stimulated fatty acid production. Mouse 3T3-L1 cells purchased from ZenBio (Research Triangle Park, N.C.) were seeded at 3,000 cells per well on 96-well plates in Pre-Adipocyte Medium (Zen-Bio) and grown to confluence at 37° C. in a humidified atmosphere of 5% CO2/95% air. Two days after confluence, cells were placed in Adipocyte Differentiation Medium (Zen-Bio) and cultured for three additional days at 37° C. in a humidified atmosphere of 5% CO2/95% air. The culture medium was then partially replaced with Adipocyte Maintenance Medium (Zen-Bio) and the cells maintained at 37° C. in a humidified atmosphere of 5% CO2/95% air with partial medium replacement every other day. At 12 day of differentiation, 96-well cultures were transferred to Adipocyte Maintenance Medium without insulin and placed at 37° C. in a humidified atmosphere of 5% CO2/95% air for two days. Following this incubation period, the medium was removed from 14 day differentiated cultures and replaced with Assay Buffer (Zen-Bio) containing peptides (10 μM), insulin (0.25 nM or 10 nM), isoproterenol (0.1 nM) as appropriate. […] isoproterenol was added to all wells except untreated controls. Insulin at 0.1 nM and 10 nM was added to control wells. Peptides (10 μM) in the absence or presence of insulin (0.25 nM) were added to test wells. Cells in the presence of compounds were placed at 37° C. in a humidified atmosphere of 5% CO2/95% air for 3 hours. At the end of the final 3 h incubation, conditioned assay buffer was removed from each well and place in a fresh 96-well plate for quantitation of free fatty acid content. Free fatty acid concentrations in the assay buffer samples were determined using a Free Fatty Acid Assay kit (Zen-Bio) according to the manufacturer's instructions using a Cytation 3 plate reader at 540 nm (BioTek, Winooski, VD. Absorbance values were corrected for untreated background and expressed as a percent of isoproterenol (0.1 nM) treated control cells for peptides alone or isoproterenol (0.1 nM)+insulin (0.25 nM) for peptides in presence of insulin (0.25 nM). Treatment with isoproterenol […] alone was used as the free fatty acid level stimulatory control. The relative standard deviation of the isoproterenol control was <10%. […] Free fatty acid levels for insulin (10 nM) treatment were <5% of the isoproterenol control value. Free fatty acid levels for insulin (0.25 nM) treatment were 60-80% of the isoproterenol control value.

[5] = tested on: Rat primary cortical neurons; assay: Neuroprotection against Aβ (1-42) toxicity in cultured neurons; conditions: Aβ (1-42) 20 μM + BDNF 50 ng/mL, 24 hours
Description: Rat primary cortical neurons were collected and cultured by methods well known in the art (Singer et al., 1999 and Callizot et al., 2013). The cells were seeded at a density of 25,000 per well in 96-well plates precoated with poly-L-lysine and cultured at 37° C. in an air (95%)-CO2 (5%) incubator. The medium was changed every 2 days. The cortical neurons were treated after 11 days of culture. The A13(1-42) was prepared using the procedure described by Callizot et al., 2013 to ensure monomeric peptide. Compounds and the positive control, BDNF (50 ng/ml), were dissolved in culture medium and then pre-incubated with primary cortical neurons for 1 hour before addition of A13(1-42) (20 μM). After 24 hours of treatment, the cell culture supernatant was removed and the cortical neurons were fixed by a cold solution of ethanol (95%) and acetic acid (5%) for 5 min at −20° C. After permeabilization with 0.1% of saponin, cells were incubated for 2 hours with mouse monoclonal antibody anti-microtubule-associated-protein 2 (MAP-2) at a dilution of 1/400 in PBS containing 1% fetal calf serum and 0.1% of saponin to stain cell bodies and neurites.
This antibody was detected with Alexa Fluor 488 goat anti-mouse IgG at the dilution 1/400 in PBS containing 1% FCS, 0.1% saponin, for 1 hour at room temperature. For each condition, images were obtained using ImageXpress (Molecular Devices) with 20× magnification. The total number of cells and extent of neurite network was determined using Custom Module Editor (Molecular Devices).

Row | Molecule | Procollagen I Alpha 1 Mean (SEM) [2] | Glucose Levels, MEAN % Control, +Insulin [3] | Glucose Levels, MEAN % Control, −Insulin [3] | Free Fatty Acid Levels, MEAN % ISO, +Insulin [4] | Free Fatty Acid Levels, MEAN % ISO, −Insulin [4] | other results
1 | CN(C)C(=N)N=C(N)N [metformin, reference compound] |  |  |  |  |  | glucose levels, % of the 0.1% DMSO treated control value [1]: < 20%
2 | RVIRMCLNVGLLGEL(dA)G [SEQ ID NO: 27] (chain 1 RVIRMCLNVGLLGEL[dA]G; chain 2 RVIRMCLNVGLLGEL[dA]G; disulfide I:6-II:6) | 4120 (677) pg/mL |  |  |  |  | Glucose Levels, MEAN % Control, +Insulin ([3]; listed as 27): 54.3%; Glucose Levels, MEAN % Control, −Insulin ([3]; listed as 27): 108%; Free Fatty Acid Levels, MEAN % ISO, +Insulin ([4]; listed as 27): 28.2%; Free Fatty Acid Levels, MEAN % ISO, −Insulin ([4]; listed as 27): 94.5%
3 | RVIRMCLNVGLNGEL(dA)E (RVIRMCLNVGLNGEL[dA]E) [SEQ ID NO: 20] | 4680 (377) pg/mL | 75.1% | 110% | 97.5% | 102% | 
4 | {PEG12}KRVIRMCLGVGLLGDLAG ([PEG12′]KRVIRMCLGVGLLGDLAG) [SEQ ID NO: 16] | 3980 (569) pg/mL | 79.8% | 104% | 33.4% | 54.6% | 
5 | B1 |  |  |  |  |  | Percent Protection of Neuronal Network [5]: 95%; Percent Survival of Neurons [5]: 98%
